Assay results taken from US9120804B2, “8-substituted 2-amino-[1,2,4] triazolo [1, 5-A] pyrazines as Syk tryrosine kinase inhibitors and GCN2 serin kinase inhibitors” (Merck Patent GmbH, priority 2012, dated 2015).

The compounds below were run against T1, SYK (Homo sapiens, UniProt P43405) (assay: SYK flash plate assay (enzyme assay)).
T1 construct: 2.5 nM SYK, 400 nM Biotin-Aha-Aha-KEDPDYEWPSAKK
Type: biochemical
Protocol: The kinase assay is performed either as 384-well Flashplate assay (for e.g. Topcount measurement) or as 384-well Image-Flashplate assay (for LEADseeker measurement).
2.5 nM SYK, 400 nM Biotin-Aha-Aha-KEDPDYEWPSAKK
and 10 μM ATP (spiked with 0.3 μCi 33P-ATP/well) are incubated in a total volume of 50 μl (60 mM Hepes, 10 mM MgCl2, 1.2 mM Dithiothreitol, 0.02% Brij35, 0.1% BSA, pH 7.5) with or without test compound for 1 hours at 30° C. The reaction is stopped with 25 μl 200 mM EDTA. After 30 Min at 30° C. the liquid is removed and each well washed thrice with 100 μl 0.9% sodium chloride solution. Non-specific reaction is determined in presence of […] Staurosporine. Radioactivity is measured with Topcount (when using Flashplates) or with LEADseeker (when using Image-Flashplates) respectively. Results (e.g. IC50-values) are calculated with program tools provided by the IT-department (e.g. Symyx Assay Explorer, Genedata Screener). In Vivo Assays CIA
Compound `CC1(C)C(=O)Nc2cc(Nc3nc4c(N(CCO)C5CCNCC5)nccn4n3)ccc21` [C93, 6-{8-[(2-hydroxy-ethyl)-piperidin-4-yl-amino]-[1,2,4]triazolo[1,5-a]pyrazin-2-ylamino}-3,3-dimethyl-1,3-dihydro-indol-2-one] has an IC50 of 300 to 3000 nM.
For `CN(C)c1ccc(-c2nccn3nc(Nc4ccc5c(c4)NC(=O)C5(C)C)nc23)cn1` [E139, 6-[8-(6-dimethylamino-pyridin-3-yl)-[1,2,4]triazolo[1,5-a]pyrazin-2-ylamino]-3,3-dimethyl-1,3-dihydro-indol-2-one], the IC50 was under 100 nM.
For `CC1(C)C(=O)Nc2cc(Nc3nc4c(N5CCC6(CCNCC6)C5=O)nccn4n3)ccc21` [E141, 2-[2-(3,3-dimethyl-2-oxo-2,3-dihydro-1H-indol-6-ylamino)-[1,2,4]triazolo[1,5-a]pyrazin-8-yl]-2,8-diaza-spiro[4.5]decan-1-one], the IC50 was 100 to 300 nM.
Work on `COc1ccccc1Nc1nc2c(-c3ccccc3-c3ccccc3)nccn2n1` [C24, (8-Biphenyl-2-yl-[1,2,4]triazolo[1,5-a]pyrazin-2-yl)-(2-methoxy-phenyl)-amine] yielded an IC50 of 3000 to 50000 nM.
`CC1(C)C(=O)Nc2cc(Nc3nc4c(N5CCC6(CCNC6=O)C5)nccn4n3)ccc21` (stereo not shown) [E19, 3,3-dimethyl-6-[8-(6-oxo-2,7-diaza-spiro[4.4]non-2-yl)-[1,2,4]triazolo[1,5-a]pyrazin-2-ylamino]-1,3-dihydro-indol-2-one] gave an IC50 of 100 to 300 nM.
In the case of `CC1(C)C(=O)Nc2cc(Nc3nc4c(Nc5n[nH]c(C(F)(F)F)n5)nccn4n3)ccc21` [E60, 3,3-dimethyl-6-[8-(5-trifluoromethyl-1H-[1,2,4]triazol-3-ylamino)-[1,2,4]triazolo[1,5-a]pyrazin-2-ylamino]-1,3-dihydro-indol-2-one], the IC50 is reported as 300 to 3000 nM.
`CN(C)c1ccc2c(c1)N(c1nccn3nc(Nc4ccc5c(c4)NC(=O)C5(C)C)nc13)CC2` [E119, 6-[8-(6-dimethylamino-2,3-dihydro-indol-1-yl)-[1,2,4]triazolo[1,5-a]pyrazin-2-ylamino]-3,3-dimethyl-1,3-dihydro-indol-2-one] gave an IC50 of 100 to 300 nM.
`CC1(C)C(=O)Nc2cc(Nc3nc4c(N5CCCNCC5)nccn4n3)ccc21` [E68, 6-(8-[1,4]diazepan-1-yl-[1,2,4]triazolo[1,5-a]pyrazin-2-ylamino)-3,3-dimethyl-1,3-dihydro-indol-2-one] was tested, and the IC50 was under 100 nM.
`CC1CCC(C)N1c1nccn2nc(Nc3ccc4c(c3)NC(=O)C4(C)C)nc12` (stereo not shown) [E43, 6-[8-(2,5-dimethyl-pyrrolidin-1-yl)-[1,2,4]triazolo[1,5-a]pyrazin-2-ylamino]-3,3-dimethyl-1,3-dihydro-indol-2-one] gave an IC50 of under 100 nM.
In the case of `COc1cc(Nc2nc3c(N4CCC(NS(C)(=O)=O)CC4)nccn3n2)cc(OC)c1` [C53, N-{1-[2-(3,5-dimethoxy-phenylamino)-[1,2,4]triazolo[1,5-a]pyrazin-8-yl]-piperidin-4-yl}-methanesulfonamide], the IC50 is reported as 300 to 3000 nM.
In the case of `CC1(C)CC(=O)Nc2cc(Nc3nc4c(N5CCC6(CC(=O)NC6=O)C5)nccn4n3)ccc21` (stereo not shown) [E7, 7-[2-(4,4-dimethyl-2-oxo-1,2,3,4-tetrahydro-quinolin-7-ylamino)-[1,2,4]triazolo[1,5-a]pyrazin-8-yl]-2,7-diaza-spiro[4.4]nonane-1,3-dione], the IC50 is reported as under 100 nM.
`CC1(C)CCCc2ccc(-c3nccn4nc(Nc5ccc6c(c5)NC(=O)C6(C)C)nc34)cc21` [E146, 6-[8-(8,8-dimethyl-5,6,7,8-tetrahydro-naphthalen-2-yl)-[1,2,4]triazolo[1,5-a]pyrazin-2-ylamino]-3,3-dimethyl-1,3-dihydro-indol-2-one] gave an IC50 of 300 to 3000 nM.
Compound `COc1cc(Nc2nc3c(N4CCNC(c5ccccc5)C4)nccn3n2)cc(OC)c1` (stereo not shown) [C54, (3,5-dimethoxy-phenyl)-[8-(3-phenyl-piperazin-1-yl)-[1,2,4]triazolo[1,5-a]pyrazin-2-yl]-amine] has an IC50 of 3000 to 50000 nM.
In the case of `CC1(C)CC(=O)Nc2cc(Nc3nc4c(N5CCC6(CC5)CNC(=O)O6)nccn4n3)ccc21` [E46, 4,4-dimethyl-7-[8-(2-oxo-1-oxa-3,8-diaza-spiro[4.5]dec-8-yl)-[1,2,4]triazolo[1,5-a]pyrazin-2-ylamino]-3,4-dihydro-1H-quinolin-2-one], the IC50 is reported as under 100 nM.
`COc1cc(Nc2nc3c(N4CCN(C(=O)OC(C)(C)C)CC4)nccn3n2)cc(OC)c1` [D1, 4-[2-(3,5-dimethoxy-phenylamino)-[1,2,4]triazolo[1,5-a]pyrazin-8-yl]-piperazine-1-carboxylic acid tert-butyl ester] showed an IC50 of 3000 to 50000 nM.
`CC1(C)C(=O)Nc2cc(Nc3nc4c(N5CCc6nc(N)ncc6C5)nccn4n3)ccc21` [E56, 6-[8-(2-amino-7,8-dihydro-5H-pyrido[4,3-d]pyrimidin-6-yl)-[1,2,4]triazolo[1,5-a]pyrazin-2-ylamino]-3,3-dimethyl-1,3-dihydro-indol-2-one] gave an IC50 of under 100 nM.
For `CC1(C)C(=O)Nc2cc(Nc3nc4c(N5CCC(CO)C5)nccn4n3)ccc21` (stereo not shown) [E30, 6-[8-(3-hydroxymethyl-pyrrolidin-1-yl)-[1,2,4]triazolo[1,5-a]pyrazin-2-ylamino]-3,3-dimethyl-1,3-dihydro-indol-2-one], the IC50 was 3000 to 50000 nM.
In the case of `CC1(C)C(=O)Nc2cc(Nc3nc4c(-c5cnc6ccccc6c5)nccn4n3)ccc21` [E115, 3,3-Dimethyl-6-(8-quinolin-3-yl-[1,2,4]triazolo[1,5-a]pyrazin-2-ylamino)-1,3-dihydro-indol-2-one], the IC50 is reported as under 100 nM.
`CC1(C)C(=O)Nc2cc(Nc3nc4c(N5CC6(C5)NC(=O)NC6=O)nccn4n3)ccc21` [C109, 2-[2-(3,3-dimethyl-2-oxo-2,3-dihydro-1H-indol-6-ylamino)-[1,2,4]triazolo[1,5-a]pyrazin-8-yl]-2,5,7-triaza-spiro[3.4]octane-6,8-dione] gave an IC50 of 100 to 300 nM.
`CC1(C)C(=O)Nc2cc(Nc3nc4c(N5CCC6(CN[C@H](C(F)(F)F)C6)C5)nccn4n3)ccc21` (stereo partly drawn) [E153, 3,3-dimethyl-6-[8-((S)-8-trifluoromethyl-2,7-diaza-spiro[4.4]non-2-yl)-[1,2,4]triazolo[1,5-a]pyrazin-2-ylamino]-1,3-dihydro-indol-2-one] was tested, and the IC50 was under 100 nM.
For `CC1(C)C(=O)Nc2cc(Nc3nc4c(-c5cccc(S(N)(=O)=O)c5)nccn4n3)ccc21` [C102, 3-[2-(3,3-dimethyl-2-oxo-2,3-dihydro-1H-indol-6-ylamino)-[1,2,4]triazolo[1,5-a]pyrazin-8-yl]-benzenesulfonamide], the IC50 was under 100 nM.
With `CC1(C)C(=O)Nc2cc(Nc3nc4c(N5C[C@H](OC=O)C[C@@H]5c5ccccc5C(F)(F)F)nccn4n3)ccc21` [E85, formic acid (3R,5R)-1-[2-(3,3-dimethyl-2-oxo-2,3-dihydro-1H-indol-6-ylamino)-[1,2,4]triazolo[1,5-a]pyrazin-8-yl]-5-(2-trifluoromethyl-phenyl)-pyrrolidin-3-yl ester] the IC50 was 3000 to 50000 nM.
`CC1(C)C(=O)Nc2cc(Nc3nc4c(N5CCNC(=O)CC5)nccn4n3)ccc21` [E74, 3,3-dimethyl-6-[8-(5-oxo-[1,4]diazepan-1-yl)-[1,2,4]triazolo[1,5-a]pyrazin-2-ylamino]-1,3-dihydro-indol-2-one] gave an IC50 of under 100 nM.
`CC(C)(O)c1ccc(Nc2nc3c(N4CCCCCC4)nccn3n2)cc1N` [E125, 2-[2-amino-4-(8-azepan-1-yl-[1,2,4]triazolo[1,5-a]pyrazin-2-ylamino)-phenyl]-propan-2-ol] showed an IC50 of under 100 nM.
Compound `CC1(C)C(=O)Nc2cc(Nc3nc4c(NC(=O)c5ccc6c(c5)NCC6)nccn4n3)ccc21` [E129, 2,3-dihydro-1H-indole-6-carboxylic acid [2-(3,3-dimethyl-2-oxo-2,3-dihydro-1H-indol-6-ylamino)-[1,2,4]triazolo[1,5-a]pyrazin-8-yl]-amide] has an IC50 of 300 to 3000 nM.
`CC1(C)C(=O)Nc2cc(Nc3nc4c(NS(=O)(=O)c5ccccc5)nccn4n3)ccc21` [E111, N-[2-(3,3-dimethyl-2-oxo-2,3-dihydro-1H-indol-6-ylamino)-[1,2,4]triazolo[1,5-a]pyrazin-8-yl]-benzenesulfonamide] was tested, and the IC50 was 300 to 3000 nM.
Work on `CC1(C)C(=O)Nc2cc(Nc3nc4c(NCCCNc5nccn6nc(Nc7ccc8c(c7)NC(=O)C8(C)C)nc56)nccn4n3)ccc21` [E117, 6-[[8-[3-[[2-[(3,3-dimethyl-2-oxo-indolin-6-yl)amino]-[1,2,4]triazolo[1,5-a]pyrazin-8-yl]amino]propylamino]-[1,2,4]triazolo[1,5-a]pyrazin-2-yl]amino]-3,3-dimethyl-indolin-2-one] yielded an IC50 of 3000 to 50000 nM.
`CC1(C)C(=O)Nc2cc(Nc3nc4c(N5CCCC5c5ccccc5)nccn4n3)ccc21` (stereo not shown) [C100, 3,3-dimethyl-6-[8-(2-phenyl-pyrrolidin-1-yl)-[1,2,4]triazolo[1,5-a]pyrazin-2-ylamino]-1,3-dihydro-indol-2-one] was tested, and the IC50 was 300 to 3000 nM.
In the case of `CC1(C)C(=O)Nc2cc(Nc3nc4c(N5CC[C@@]6(O)CCCC[C@H]6C5)nccn4n3)ccc21` [E136, 6-[8-((4aS,8aS)-4a-hydroxy-octahydro-isoquinolin-2-yl)-[1,2,4]triazolo[1,5-a]pyrazin-2-ylamino]-3,3-dimethyl-1,3-dihydro-indol-2-one], the IC50 is reported as under 100 nM.
Work on `CC1(C)C(=O)Nc2cc(Nc3nc4c(N[C@@H]5CCCNC5)nccn4n3)ccc21` [C87, 3,3-dimethyl-6-[8-((R)-piperidin-3-ylamino)-[1,2,4]triazolo[1,5-a]pyrazin-2-ylamino]-1,3-dihydro-indol-2-one] yielded an IC50 of 100 to 300 nM.
`Cn1cc(-c2nccc3nc(Nc4ccc5c(c4)NC(=O)CCC5(C)C)nn23)cn1` [E155, 5,5-dimethyl-8-[5-(1-methyl-1H-pyrazol-4-yl)-[1,2,4]triazolo[1,5-c]pyrimidin-2-ylamino]-1,3,4,5-tetrahydro-benzo[b]azepin-2-one] gave an IC50 of under 100 nM.
